Experimental data as given in US5231182A, “Method of making certain aryl containing amides” (American Cyanamid Company, priority 1991, dated 1993).
“And” between values parts separate entries of the source, which are not always exact repeats. Equal values may be shown once.

Assays:
[1] = tested on: Endotoxin induced shock and mortality; experiment: Endotoxin induced shock and mortality in mice: low dose, chronic mouse endotoxemia; type: in vivo, Male Balb/c mice
Description: Endotoxin administration produces a shock-like state characterized by vascular permeability changes, hypotension, neutropenia, thrombocytopenia,multiple organ damage and death. The major mediators released after endotoxin injection are TNF (tumor necrosis factor), PAF (platelet activating factor) and […] (interleukin I). PAF administration mimics the signs and symptoms of endotoxin induced shock and death and endotoxin also induces the release of PAF. Therefore, the effects of endotoxin should be blocked with a PAF antagonist.
Male Balb/c mice (approximately 20 g) are obtained from Charles River Laboratories and used after a one-two week acclimation period. Animals are given (ip) test compound dissolved in saline or water (sonicated and heated) at different time intervals prior to and after the ip injection of endotoxin (usually 2 hours before LPS endotoxin, and 3-4 hours after). Sigma E. Coli endotoxin, 0111:B4, phenol extraction, catalog #L2630 is used for these studies.
For the chronic endotoxin shock model, a lower dose of endotoxin is administered (generally 15 to 20 mg/kg i.p). This dose gives an LD80 in two to four days following LPS administration. Test compounds are given 2 hours before LPS and 3-4 hours after on the first day, followed by 3 or 4 consecutive days of BID dosing. The number of survivors in each group is recorded each day for a period of 5 to 7 days.
Effect of Compounds Given i.p. in Low Dose, Chronic Mouse Endoxemia

[2] = tested on: PAF induced lethality; experiment: PAF induced lethality in mice; type: in vivo; conditions: PAF 150 μg/kg IV
Protocol: PAF given I.V. to mice causes an immediate hypotensive shock leading to death in 1 hour or less. Compounds are given intraperitoneally or P.O. at various times before the PAF challenge. Animals alive after 2 hours are counted and the activity of test compounds expressed as % survival corrected for any control (saline treated) animals which survived the PAF challenge.
Effect of Compound Given I.V. or P.O. in Protecting
Mice from a Lethal Challenge of PAF^a
^a lethal challenge of PAF is 150 μg/kg IV.

[3] = biological target: T1, PAF receptor (Oryctolagus cuniculus, UniProt G1TEI7); experiment: Platelet Activating Factor antagonism in vitro: inhibition of PAF induced platelet aggregation in rabbit platelet rich plasma; type: cell-based, rabbit (New Zealand White); conditions: PAF chall conc 5.0000E-08 M
T1 construct: centrifuged at 800 rpm for 10-15 minutes at room temperature to recover the platelet rich plasma (PRP); endogenous in cells; host or cells: platelets in citrated platelet rich plasma from male New Zealand White rabbits (Oryctolagus cuniculus)
T1 sequence (G1TEI7 1-342): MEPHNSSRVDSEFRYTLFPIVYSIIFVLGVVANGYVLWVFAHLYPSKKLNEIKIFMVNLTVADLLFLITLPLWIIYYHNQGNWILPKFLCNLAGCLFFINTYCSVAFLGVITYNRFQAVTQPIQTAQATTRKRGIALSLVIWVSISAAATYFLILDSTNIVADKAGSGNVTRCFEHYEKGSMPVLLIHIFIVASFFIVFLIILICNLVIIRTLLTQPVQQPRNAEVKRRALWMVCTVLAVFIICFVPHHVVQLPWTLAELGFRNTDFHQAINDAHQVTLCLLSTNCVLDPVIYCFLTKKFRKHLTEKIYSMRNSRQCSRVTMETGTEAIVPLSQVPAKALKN
Protocol: Test compounds are evaluated as PAF receptor antagonists in vitro by measuring inhibition of PAF (platelet activating factor) induced platelet aggregation. Platelet aggregation is measured by a modification of the method described in […], et. al., J. Med. Chem., 27 1174, 1984. […] All syringes and pipets are plastic. The blood is gently mixed and immediately centrifuged at 800 rpm for 10-15 minutes at room temperature to recover the platelet rich plasma (PRP). Platelet poor plasma (PPP) is prepared by centrifuging PRP at 2800 rpm for 10 minutes at room temperature. Dilutions (1:3000) of PRP in Isoton® diluent are made and platelet counts are determined on a Coulter Thrombocounter which is standardized with platelet reference standards (Interscience Platelet Control, Portland, Oreg.). PRP platelet counts are adjusted to approximately 400,000-500,000 platelets/μl by the addition of PPP. L-PAF (Platelet Activating Factor) is obtained from Calbiochem. […] All solutions are made up in plastic tubes, stored on ice and protected from heat and light. Solutions are prepared fresh or frozen at -20° C. and used within 48 hours. Incubation mixtures consisted of 400 μl PRP, 50 μl of saline diluent or test compound and 50 μl of PAF agonist. More specifically, 400 μl of PRP is stabilized in a cuvette for 1-2 minutes at 37° C. in the aggregometer to achieve a stable baseline, then 50 μl of saline or test compound is added and incubated for 5 minutes before addition of the challenge concentration of PAF. A submaximal concentration is determined from the dose response curve for PAF for that experiment. In general, the challenge concentration is 5E-8 or IE-7M. Aggregation is monitored for 5 minutes. Samples containing test compound or diluent are run simultaneously for comparison. Test compounds are initially evaluated at a screening concentration of 1E-5M. […] The recording equipment consists of a dual channel Chronolog aggregometer connected to a dual channel 10MV full scale deflection Omniscribe chart recorder (Houston Instruments). The chart recorder is calibrated daily with the use of a suspension of Bio-Rad latex beads (S-X 12 400 mesh) which has a density slightly greater than rabbit PRP. […] These limits defined a full scale deflection. The aggregation traces are analyzed by a digitizing method (C. Kohler and B. Zoltan, J. Pharm. Methods, 12, 113, 1984) with x, y coordinate data stored in a computer file. A suitable program computes parameters of interest such as the magnitude of aggregation. | ^a dose of compound that gives the indicated % inhibition. | ^b the % inhibition of PAF induced platelet aggregation. | ^c the molar concentration of compound that will inhibit 50% of the | platelet aggretation induced by PAF given at the indicated PAF challenge | concentration.

What does the source list for `CCCCCCCCCCCCCCOc1ccc(CN(C(C)=O)c2cccc(C[n+]3csc(C)c3)c2)cc1.[Br-]` [3-[[3-[Acetyl[[4-(tetradecyloxy)phenyl]methyl]amino]phenyl]methyl]-5-methylthiazolium bromide]?
% Survival ([1]; day 0, dose 10 mg/kg i.p.): 100%; No Surv./tot. ([1]; day 0, dose 10 mg/kg i.p.): 30/30; % Survival ([1]; day 1, dose 10 mg/kg i.p.): 73%; No Surv./tot. ([1]; day 1, dose 10 mg/kg i.p.): 22/30; % Survival ([1]; day 2, dose 10 mg/kg i.p.): 33%; No Surv./tot. ([1]; day 2, dose 10 mg/kg i.p.): 10/30; % Survival ([1]; day 3, dose 10 mg/kg i.p.): 26%; No Surv./tot. ([1]; day 3, dose 10 mg/kg i.p.): 8/30; % Survival ([1]; day 4, dose 10 mg/kg i.p.): 23%; No Surv./tot. ([1]; day 4, dose 10 mg/kg i.p.): 7/30; % Survival ([1]; day 5, dose 10 mg/kg i.p.): 23%; No Surv./tot. ([1]; day 5, dose 10 mg/kg i.p.): 7/30; % Survival ([1]; day 6, dose 10 mg/kg i.p.): 23%; No Surv./tot. ([1]; day 6, dose 10 mg/kg i.p.): 7/30; % Survival ([2]; I.V. 1 mg/kg): 83%; % Survival ([2]; I.V. .25 mg/kg): 100%; % Survival ([2]; I.V. .5 mg/kg): 83%; % Survival ([2]; P.O. 5 mg/kg): 52%; % Survival ([2]; P.O. 10 mg/kg): 75%; % Survival ([2]; P.O. 20 mg/kg): 75%; % INH (inhibition of PAF induced platelet aggregation) ([3]; dose .00001 M): 100.0% and 90.0%

With `CCCCCCCCCCCCCCOc1ccc(CC(=O)Nc2cccc(C[n+]3ccsc3)c2)cc1.[Br-]` [3-[[3-[[[-4-(tetradecyloxy)phenyl]acetyl]amino]phenyl]methyl]thiazolium bromide] as the compound, how does the “% Survival” value ([1]; day 0, dose 10 mg/kg i.p.) read?
The value was 100%.

What about the “No Surv./tot.” value ([1]; day 0, dose 10 mg/kg i.p.) of the same compound?
The value was 30/30.

And the “% Survival” value ([1]; day 0, dose 20 mg/kg i.p.)?
Its value is 100%.

What about the “No Surv./tot.” value ([1]; day 0, dose 20 mg/kg i.p.) of the same compound?
The value was 30/30.

And the “% Survival” value ([1]; day 1, dose 10 mg/kg i.p.)?
The value was 83%.

What about the “No Surv./tot.” value ([1]; day 1, dose 10 mg/kg i.p.) of the same compound?
The value was 25/30.

What about the “% Survival” value ([1]; day 1, dose 20 mg/kg i.p.) of the same compound?
The value was 90%.

And the “No Surv./tot.” value ([1]; day 1, dose 20 mg/kg i.p.)?
Its value is 27/30.

And the “% Survival” value ([1]; day 2, dose 10 mg/kg i.p.)?
Its value is 66%.

And the “No Surv./tot.” value ([1]; day 2, dose 10 mg/kg i.p.)?
Its value is 20/30.

And the “% Survival” value ([1]; day 2, dose 20 mg/kg i.p.)?
Its value is 43%.

And the “No Surv./tot.” value ([1]; day 2, dose 20 mg/kg i.p.)?
Its value is 13/30.

What about the “% Survival” value ([1]; day 3, dose 10 mg/kg i.p.) of the same compound?
The value was 63%.

What about the “No Surv./tot.” value ([1]; day 3, dose 10 mg/kg i.p.) of the same compound?
Its value is 19/30.

And the “% Survival” value ([1]; day 3, dose 20 mg/kg i.p.)?
The value was 40%.

And the “No Surv./tot.” value ([1]; day 3, dose 20 mg/kg i.p.)?
Its value is 12/30.

And the “% Survival” value ([1]; day 4, dose 10 mg/kg i.p.)?
The value was 63%.

What about the “No Surv./tot.” value ([1]; day 4, dose 10 mg/kg i.p.) of the same compound?
Its value is 19/30.

And the “% Survival” value ([1]; day 4, dose 20 mg/kg i.p.)?
Its value is 40%.

And the “No Surv./tot.” value ([1]; day 4, dose 20 mg/kg i.p.)?
The value was 12/30.

What about the “% Survival” value ([1]; day 5, dose 10 mg/kg i.p.) of the same compound?
The value was 63%.

What about the “No Surv./tot.” value ([1]; day 5, dose 10 mg/kg i.p.) of the same compound?
The value was 19/30.

And the “% Survival” value ([1]; day 5, dose 20 mg/kg i.p.)?
Its value is 40%.

And the “No Surv./tot.” value ([1]; day 5, dose 20 mg/kg i.p.)?
Its value is 12/30.

And the “No Surv./tot.” value ([1]; day 6, dose 10 mg/kg i.p.)?
The value was 19/30.

And the “No Surv./tot.” value ([1]; day 6, dose 20 mg/kg i.p.)?
Its value is 12/30.

What about the “% Survival” value ([1]; day 7, dose 10 mg/kg i.p.) of the same compound?
The value was 63%.

And the “No Surv./tot.” value ([1]; day 7, dose 10 mg/kg i.p.)?
Its value is 19/30.

What about the “% Survival” value ([1]; day 7, dose 20 mg/kg i.p.) of the same compound?
Its value is 40%.

What about the “No Surv./tot.” value ([1]; day 7, dose 20 mg/kg i.p.) of the same compound?
The value was 12/30.

And the “% Survival” value ([2]; P.O. 40 mg/kg)?
Its value is 40%.

And the “% INH (inhibition of PAF induced platelet aggregation)” value ([3]; dose .000001 M)?
Its value is 93.0% and 62.0%.
